From US5948792A, “Fluorine-containing 1,4-disubstituted piperidine derivatives” (Banyu Pharmaceutical Co., Ltd., priority 1996, dated 1999)

Key:
Muscarinic M2 receptor = target: T1, Muscarinic M2 receptor (Homo sapiens, UniProt P08172); test: Inhibition of binding of [3H]-N-methylscopolamine to muscarinic M2 receptor; conditions: CHO cell membranes expressing cloned human receptor; 0.2 nM [3H]-N-methylscopolamine, pH 7.4, 2 hours, 25° C; read-out: Ki M2 (inhibitory effects on binding to muscarinic M2 receptor)
T1 construct: purchased Receptor Biology, Inc; host or cells: CHO cells (membranes)
T1 sequence (P08172 1-466): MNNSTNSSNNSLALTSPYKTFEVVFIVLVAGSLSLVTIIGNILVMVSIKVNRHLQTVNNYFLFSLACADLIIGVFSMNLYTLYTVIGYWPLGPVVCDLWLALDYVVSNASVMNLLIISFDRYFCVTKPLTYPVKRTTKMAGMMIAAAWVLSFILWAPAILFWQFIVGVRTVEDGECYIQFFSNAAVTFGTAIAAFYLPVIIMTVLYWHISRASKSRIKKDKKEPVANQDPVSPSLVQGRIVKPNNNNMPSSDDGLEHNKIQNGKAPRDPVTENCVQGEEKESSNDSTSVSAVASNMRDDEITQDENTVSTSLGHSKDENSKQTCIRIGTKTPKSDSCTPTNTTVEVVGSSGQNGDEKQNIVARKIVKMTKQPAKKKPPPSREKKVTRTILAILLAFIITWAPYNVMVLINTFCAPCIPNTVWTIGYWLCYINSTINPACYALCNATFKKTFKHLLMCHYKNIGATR
Procedure: Tests on Inhibition of Binding to Muscarinic Receptors
These tests were performed according to a modification of the method of Hargreaves et al. (Br. J. Pharmacol. 107: 494-501, 1992). Membranes from CHO cells expressing cloned human m1-m5 (Receptor Biology, Inc.) were incubated with 0.2 nM [^3 H]-N-methylscopolamine and each a compound of the present invention to be tested in 0.5 ml of 50 mM Tris-HCl-10 mM MgCl2 -1 mM EDTA (pH 7.4) for 2 hours at 25° C. Free and membrane-bound [^3 H]-N-methylscopolamine were separated by filtration over glass filters (UniFilter-GF/C; Packard Instruments Co., Inc.) using cell harvester (Filtermate™ 196; Packard Instruments Co., Inc.). Then the filter was washed four times with 1 ml of ice-cold Tris-HCl (pH 7.4) and dried at 50° C. After adding a scintillator (Microscinti 0; Packard Instruments Co., Inc.), the radioactivity was counted by a liquid scintillation counter (TopCount™; Packard Instruments Co., Inc.). Non-specific binding was measured in the presence of 1 μM N-methylscopolamine.

airway M3 receptor = target: T2, airway M3 receptor (Rattus norvegicus, UniProt P08483); test: Antagonism to the airway M3 receptor in an isolated rat trachea (in vitro); format: cell-based; conditions: for Kb: isolated rat trachea, carbachol-induced contraction
T2 construct: the trachea was isolated; from tissue; host or cells: isolated trachea of male SD strain rat
T2 sequence (P08483 whole entry): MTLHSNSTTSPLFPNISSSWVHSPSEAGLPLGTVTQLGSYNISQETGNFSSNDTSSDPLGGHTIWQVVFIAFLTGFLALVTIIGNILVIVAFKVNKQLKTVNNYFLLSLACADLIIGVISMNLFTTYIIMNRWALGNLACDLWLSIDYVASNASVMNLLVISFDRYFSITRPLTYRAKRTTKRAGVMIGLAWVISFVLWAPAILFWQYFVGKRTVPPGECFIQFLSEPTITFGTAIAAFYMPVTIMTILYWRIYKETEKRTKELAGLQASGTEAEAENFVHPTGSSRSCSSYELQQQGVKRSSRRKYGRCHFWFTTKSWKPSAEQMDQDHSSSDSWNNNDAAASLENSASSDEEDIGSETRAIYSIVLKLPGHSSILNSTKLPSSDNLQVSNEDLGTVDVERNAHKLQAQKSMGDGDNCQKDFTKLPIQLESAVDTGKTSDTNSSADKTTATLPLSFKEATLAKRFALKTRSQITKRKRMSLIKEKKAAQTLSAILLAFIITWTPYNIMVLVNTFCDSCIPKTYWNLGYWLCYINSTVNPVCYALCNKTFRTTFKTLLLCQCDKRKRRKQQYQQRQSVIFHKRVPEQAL
Procedure: Tests for Antagonism to Muscarinic Receptors (in vitro)
2) Tests for Antagonism to the Airway M3 Receptor in an Isolated Rat Trachea
These tests were performed according to a conventional method. A male SD strain rat (weighing 300-500 g) was killed by exsanguination, and the trachea was isolated. Annular segments (2 mm wide) were cut out from the trachea and cut transversely at the anterior cartilage part to make open ring preparation. A preparation was suspended in a Magnus tube filled with 5 ml of Krebs-Henseleit solution (gassed with 95% O2 -5% CO2 and kept at 32° C.) with an initial tension of 1.0 g and a resting tension of 0.6 g. The tension of the preparation was recorded isometrically. After being equilibrated for an hour, the preparation was made to contract twice by treatment with 10^-4 M carbachol, and the second contraction induced by carbachol was used as the reference contraction. After the preparation was washed with fresh solution to be restored to the base line, a test compound was administered thereto (or no treatment was given). Ten minutes later, carbachol (10^-8 to 10^-3 M) was cumulatively administered in three-fold increasing doses to obtain a dose-response curve. The dose-response curve was plotted by expressing responses as percentages based on the reference contraction of the preparation as 100%. The antagonistic potency (K^B value) of the test compound was determined from the degree of shift of the dose-response curve obtained by treatment with the test compound.

Muscarinic M3 Receptor = target: T3, Muscarinic M3 Receptor (Rattus norvegicus, UniProt P08483); test: Bronchodilation in rats (p.o.), inhibition of acetylcholine-induced increase in airway resistance; format: in vivo; conditions: po, 1 h, acetylcholine 50 μg/kg i.v. 60 minutes after test compound, read-out: Inhibition of Airway Contraction ED50 po
T3 construct: male rats of the Sprague-Dawley strain; from tissue; host or cells: airways of living male Sprague-Dawley rats (in vivo)
T3 sequence (P08483 whole entry): as above
Procedure: Tests for Antagonism Against Muscarinic M3 Receptor (in vivo)
1-B) Tests for Bronchodilation in Rats (p.o.)
Eight- to eleven-weeks-old male rats of Sprague-Dawley strain weighing 380-420 g were orally administered with a test compound. The rats were treated in the identical manner as in the i.v. test, starting 30 minutes after the administration, and their airway resistance values were measured. The acetylcholine-(50 μg/kg, i.v.) induced airway resistance increase were measured 60 minutes after the administration of test compounds. In controls, isotonic sodium chloride solution was used in place of the test compounds and otherwise identical procedures were repeated, the ratio between the two airway resistance values whereby being set to be 100%.

O=C(NC1CCN(Cc2ccsc2)CC1)[C@](O)(c1ccccc1)[C@@H]1CCC(F)(F)C1 [Example 11, (2R)-N-[1-(3-thienylmethyl)piperidin-4-yl]-2-[(1R)-3,3-difluorocyclopentyl]-2-hydroxy-2-phenylacetamide]
Ki (Muscarinic M2 receptor): 460 nM
Kb (airway M3 receptor): 0.95 nM
ED50 (Muscarinic M3 Receptor): 0.22 mg/kg

Cl.Cl.Nc1cccc(CN2CCC(NC(=O)[C@](O)(c3ccccc3)[C@@H]3CCC(F)(F)C3)CC2)n1 [Example 20, (2R)-N-[1-(6-aminopyridin-2-ylmethyl)piperidin-4-yl]-2-[(1R)-3,3-difluorocyclopentyl]-2-hydroxy-2-phenylacetamide dihydrochloride]
Ki (Muscarinic M2 receptor): 550 nM
Kb (airway M3 receptor): 1.6 nM
M2/M3 (ratio of KB) (airway M3 receptor; selectivity ratio of KB values, right atrium M2 / trachea M3): 630
ED50 (Muscarinic M3 Receptor): 0.37 mg/kg
